The values that follow come from patent US10143748B2, “B-cell reduction using CD37-specific and CD20-specific binding molecules” (Emergent Product Development Seattle, LLC, priority 2005, dated 2018).

For assay [1], the system named is Ramos B cells. In words: CDC assay, Ramos B cells with human serum complement, propidium iodide. It counts as cell-based. The settings on record: for CDC activity with human complement, single reagent: Ramos B cells, human serum. How it is done:
(§1) The cells were incubated 60 minutes at 37° C. […] Samples were incubated 15 minutes at room temperature in the dark prior to analysis by flow cytometry using a FACsCalibur and CellQuest software (Becton Dickinson).
as §1

The test system of assay [2] is Ramos B cells. In words: CDC assay, Ramos B cells with rabbit complement. The class given is cell-based, human. The settings on record: 10 μg/ml reagent, rabbit complement 10, 5 or 2.5%, FIG. 3C. How it is done: Human and rabbit complement were then compared for their CDC activity in the presence of the TRU-016. The CDC activity of TRU-016 molecular forms incubated with Ramos B cells and human or rabbit complement was measured (FIG. 3C). Ramos B cells were added to wells in serum free media. […] Cells plus complement source were incubated 90 minutes at 37° C. Cells were washed once with cold PBS and propidium iodide (Molecular Probes #P3566) added to a final concentration of 0.5 μg/mL in cold PBS. Cells with PI were incubated in the dark at RT for 15 minutes and analyzed by flow cytometry.

For assay [3], the system named is BJAB B cells. In words: ADCC 51Cr release assay, BJAB targets, human PBMC effectors. It counts as cell-based. The settings on record: 10 ng/mL to 20 μg/mL, effector:target 25:1, 6 hours, FIG. 5C. How it is done: To determine the ADCC activity of SEC fractions, BJAB, Ramos, and Daudi lymphoblastoid B cells (10^7) cells were labeled with 500 μCi/mL ^51Cr sodium chromate for 2 hours at 37° C. in IMDM/10% FBS. PBMCs were isolated from heparinized, human whole blood by fractionation over Lymphocyte Separation Media (LSM, ICN Biomedical) gradients. Reagent samples were added to RPMI media with 10% FBS and five serial dilutions for each reagent were prepared. For combinations, the reagents were premixed and diluted prior to addition to the wells. The ^51Cr labeled BJAB were added at (2×10^4 cells/well). The PBMCs were then added at (5×10^5 cells/well) for a final ratio of 25:1 effectors (PBMC):targets (BJAB). […] CPM released was measured on a Packard TopCounNXT from 50 μl dried culture supernatant. Percent specific killing was calculated by subtracting (cpm [mean of quadruplicate samples] of sample—cpm spontaneous release)/(cpm maximal release-cpm spontaneous release)×100 (FIG. 5C).
BJAB, Ramos, and Daudi lymphoblastoid B cells (10E7) cells were labeled with 500 μCi/mL ^51Cr sodium chromate for 2 hours at 37° C. in IMDM/10% FBS. […] Cells were counted by trypan blue exclusion using a hemacytometer prior to use in subsequent assays. […]
Effectors and targets were added to media alone to measure background killing. […] CPM released was measured on a Packard TopCounNXT. […]

Assay [4] concerns Ramos cells. The experiment in a line: ADCC assay, labeled Ramos targets, human PBMC effectors. The class given is cell-based. The settings on record: effector to target ratio 25:1, FIG. 18D.
Protocol: To determine the ADCC activity of SEC fractions, BJAB, Ramos, and Daudi lymphoblastoid B cells (10^7) cells were labeled with 500 μCi/mL ^51Cr sodium chromate for 2 hours at 37° C. in IMDM/10% FBS. PBMCs were isolated from heparinized, human whole blood by fractionation over Lymphocyte Separation Media (LSM, ICN Biomedical) gradients. Reagent samples were added to RPMI media with 10% FBS and five serial dilutions for each reagent were prepared. For combinations, the reagents were premixed and diluted prior to addition to the wells. The ^51Cr labeled BJAB were added at (2×10^4 cells/well). The PBMCs were then added at (5×10^5 cells/well) for a final ratio of 25:1 effectors (PBMC):targets (BJAB). Reactions were set up in quadruplicate wells of a 96 well plate. TRU-016 SEC fractions were added to wells at a final concentration ranging from 10 ng/mL to 20 μg/mL as indicated on the graphs. Each data series plots a different SEC fraction at the titration ranges described. Reactions were allowed to proceed for 6 hours at 37° C. in 5% CO2 prior to harvesting and counting. CPM released was measured on a Packard TopCounNXT from 50 μl dried culture supernatant. Percent specific killing was calculated by subtracting (cpm [mean of quadruplicate samples] of sample—cpm spontaneous release)/(cpm maximal release-cpm spontaneous release)×100 (FIG. 5C).
Assay [5] relates to Daudi cells. The experiment in a line: Annexin V/PI apoptosis analysis, Daudi. The class given is cell-based, human. The method, then:
Further experiments examining the effect of TRU-016 on B cell line apoptosis were performed using the more highly purified dimer form of TRU-016 (FIG. 19B). Samples were analyzed at both 24 and 48 hours after initiation of incubation reactions. Annexin/PI analysis was performed on several cell types using 20 μg/mL TRU-016 protein. Because apoptosis was reduced using the dimer form of TRU-016, 20 μg/mL goat anti-human IgG was added to reactions in order to cross link reagents on the cell surface. Cells were then stained with Annexin V-FITC and propidium iodide.

Assay [6] concerns the target T1, C1q (Homo sapiens, UniProt P02745+P02746+P02747).
T1 construct: normal human serum (NHS, #A113, Quidel Corp., San Diego, Calif.); tissue Quidel Corp. A113; host or cells: normal human serum (purchased), added to reagent-coated Ramos B cells
In words: FITC C1q binding to reagent-coated Ramos B cells in normal human serum. The settings on record: normal human serum 1.25-10%, FIG. 3A.
Protocol: C1q binding studies were performed as previously described (Cragg et al., Blood 2004, 103:2738-2743). Briefly, Ramos B-cells in Iscoves media (#12440-053, Gibco/Invitrogen, Grand island, NY) with no serum were plated in 96-well V bottom plates at 5×10^5/well in 100 μl. Cells were incubated with reagents for 15 minutes at 37° C., and normal human serum (NHS, #A113, Quidel Corp., San Diego, Calif.) diluted in Iscoves was then added at a volume of 50 μl to each well for a final concentration of 10, 5, 2.5, or 1.25% human serum. Fifty μl of media was added to the control well. For cobra venom factor (CVF) experiments, CVF was added to human serum complement samples at 20 Units CVF/mL of serum for 90 minutes at 37° C. prior to addition of serum to complement assays, and the dilution of serum by CVF accounted for when making sample dilutions.
The cells plus complement source were incubated for an additional 5 minutes at 37° C., and washed 2 times with cold PBS (#14040-133, Gibco/Invitrogen, Grand Island, N.Y.) via centrifugation and resuspended in 100 μl of PBS. Fifty μl from each well was transferred to a second plate for second step control staining. […] Samples were washed, resuspended in cold PBS, and read immediately on a FACsCalibur flow cytometer and analyzed with Cell Quest software (Becton Dickinson, San Jose, Calif.).

In assay [7] the target is T2, CD37 (Homo sapiens, UniProt P11049).
T2 sequence (P11049 1-281): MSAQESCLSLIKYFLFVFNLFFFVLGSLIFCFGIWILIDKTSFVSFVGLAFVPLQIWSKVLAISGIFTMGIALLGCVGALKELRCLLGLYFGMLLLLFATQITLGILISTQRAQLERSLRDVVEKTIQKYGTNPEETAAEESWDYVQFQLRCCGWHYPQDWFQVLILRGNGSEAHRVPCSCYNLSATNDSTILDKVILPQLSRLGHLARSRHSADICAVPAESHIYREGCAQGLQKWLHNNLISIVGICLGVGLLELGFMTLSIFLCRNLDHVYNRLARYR
The experiment in a line: binding of TRU-016 SEC fractions to Ramos cells, flow cytometry. Set-up: Ramos cells expressing the CD20 and CD37 target antigens; endogenous in cells; host or cells: Ramos B-cell lymphoma line. The settings on record: FITC goat anti-human IgG, FIG. 5A. The method, then:
To determine the binding properties of SEC fractions, cells were suspended in staining media at a concentration of approximately 4×10^6 cells/mL and then plated at 50 μl/well (2×10^5 cells/well) in staining media. Serial dilutions of SEC fractions were then added to sequential wells, incubated for 45 minutes, washed, and binding activity was detected using FITC goat anti-human IgG. Samples were fixed in 200 μl 1% paraformaldehyde in PBS. Cells were analyzed by flow cytometry on a FACsCalibur instrument using Cell Quest software (BD Biosciences, San Jose, Calif.) (FIG. 5A).
For orientation: A flow cytometer gives signals particle by particle.

T1 sequence (P02745 23-245): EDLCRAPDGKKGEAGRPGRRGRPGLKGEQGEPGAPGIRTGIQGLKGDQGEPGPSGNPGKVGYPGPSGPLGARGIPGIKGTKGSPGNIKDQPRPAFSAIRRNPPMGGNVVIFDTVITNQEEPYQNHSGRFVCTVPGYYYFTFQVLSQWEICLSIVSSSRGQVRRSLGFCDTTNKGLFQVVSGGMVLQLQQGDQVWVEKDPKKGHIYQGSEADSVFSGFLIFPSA
T1 sequence (P02746 28-253): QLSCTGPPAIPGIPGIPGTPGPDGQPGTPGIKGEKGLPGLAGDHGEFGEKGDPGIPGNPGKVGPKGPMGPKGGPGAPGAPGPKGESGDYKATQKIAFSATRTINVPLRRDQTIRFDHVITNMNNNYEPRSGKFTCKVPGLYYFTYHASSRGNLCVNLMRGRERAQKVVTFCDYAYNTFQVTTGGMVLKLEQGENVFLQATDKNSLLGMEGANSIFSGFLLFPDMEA
T1 sequence (P02747 29-245): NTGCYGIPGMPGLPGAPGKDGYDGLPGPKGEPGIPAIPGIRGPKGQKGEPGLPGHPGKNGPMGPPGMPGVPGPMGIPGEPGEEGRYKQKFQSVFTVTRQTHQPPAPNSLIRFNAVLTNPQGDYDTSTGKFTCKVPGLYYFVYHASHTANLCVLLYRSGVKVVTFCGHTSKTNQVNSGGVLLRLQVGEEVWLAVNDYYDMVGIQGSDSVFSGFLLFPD

Regarding “TRU-016 dimer peak: dimer form of TRU-016 isolated by GPC and HPLC fractionation from higher molecular weight multimers”, the results for the “CDC activity with human complement, single reagent” value in assay [1], in assay [1] (listed as dimer form of the TRU-016) and in assay [1] (listed as dimer peak) were “poor mediator of CDC”, “very low CDC activity” and “very little or no CDC activity”, respectively. In assay [2], the “CDC activity with rabbit complement” value was “good CDC”. The “ADCC, % specific killing” value in assay [3] was “potent, dose-dependent ADCC”. In assay [4], the “ADCC against Ramos cells” value is reported as “significant levels of ADCC”. In addition, the “apoptosis of Daudi cells with crosslinking agent” value in assay [5] (20 μg/mL plus 20 μg/mL goat anti-human IgG) is given as “significant increase in the level of CD37 targeted apoptosis”. The “apoptosis of Daudi cells” value in assay [5] (20 μg/mL, 24-48 hours, FIG. 19B) is recorded as “induces apoptosis of Daudi cells”.
As to “HMW multimer fraction: higher molecular weight multimers of TRU-016 separated by SEC”, in assay [6], the “FITC C1q binding” value was “more binding than the other forms”. Moreover, in assay [1], the “CDC activity with human complement, single reagent” value is “significant levels of CDC activity”. The “CDC cell killing in the presence of CVF” value in assay [1] (human serum complement with cobra venom factor, FIG. 3B) is given as “significantly reduced in the presence of CVF”. Further, in assay [3], the “ADCC, % specific killing” value is recorded as “potent, dose-dependent ADCC”. In addition, the “binding to Ramos cells (titration curves)” value in assay [7] was “better binding”.
